Test results published in patent US20210244028A1, “TREATMENT FOR REMOVING ECTOPARASITES FROM FISH” (priority 2018, published 2021).

Experiments:
Atlantic salmon = experiment: Fish mortality and behaviour during bath treatment (Example 7); type: in vivo; conditions: 20 ppm to 200 ppm, 3 to 60 minutes
Protocol: To determine the concentration- and time-dependence of imidacloprid treatment in vivo, Atlantic salmon (average of 320.9 g) were challenged with imidacloprid in seawater ([…] salinity) at 12° C. The water level in the tank was lowered and aeration was employed during administration of the active. The salmon louse copepodid culture was counted and adjusted to obtain a target level of around 40 copepodids per fish in the challenge tank at each challenge time point.
Fish behaviour/appearance was assessed in vivo during each test. Any changes in behaviour and/or appearance including mortality were recorded.

fish = experiment: Safety of imidacloprid treatment on fish (Example 8); type: in vivo; conditions: 65 ppm
Protocol: The safety of the imidacloprid treatment on fish was assessed. Fish held in a flow through tank containing 271.8 L of sea water were exposed to 65 ppm w/v of the active ingredient imidacloprid. 17.67 g of imidacloprid was dissolved in 100 ml of dimethyl sulfoxide (DMSO) and the solution was added to approximately 900 ml sea water and mixed. The flow on the through tank was disabled and the solution of imidacloprid was added.
The fish were exposed to 65 ppm imidacloprid in static water for 1 hour and observed for behavioural changes at 5-10 minute intervals. The fish were then held for a further 7 days before being terminated.

SMILES: O=[N+]([O-])NC1=NCCN1Cc1ccc(Cl)nc1 [imidacloprid]
- Fish mortality in the trial (Atlantic salmon): No fish died
- Adverse reactions during a further 7 days (fish; 1 hour exposure, 7 days monitoring): no adverse reactions
- External pathologies on termination (fish; 1 hour exposure, terminated after 7 days): no external pathologies
- Fish behaviour during the exposure period (fish; static water, 1 hour): No observable changes in fish behaviour
